Source: patent US20240391877A1, “COMPOUND AS INHIBITOR OF COMPLEMENT FACTOR D, AND PHARMACEUTICAL COMPOSITION AND USE THEREOF” (WUHAN CREATERNA SCIENCE AND TECHNOLOGY CO.,LTD., priority 2021, published 2024)
Like-named read-outs stand apart in the source and are kept apart here.

Legend:
complement factor D = biological target: T1, complement factor D (Homo sapiens, UniProt P00746); assay: Complement factor D inhibitory activity (C3b method) in vitro screening; product Bb detected by ELISA; format: biochemical; settings: factor D + factor B + factor C3b, 37° C., Bb by MicroVue Bb Plus ELISA
T1 construct: purchased Complement tech
T1 sequence (P00746 26-253): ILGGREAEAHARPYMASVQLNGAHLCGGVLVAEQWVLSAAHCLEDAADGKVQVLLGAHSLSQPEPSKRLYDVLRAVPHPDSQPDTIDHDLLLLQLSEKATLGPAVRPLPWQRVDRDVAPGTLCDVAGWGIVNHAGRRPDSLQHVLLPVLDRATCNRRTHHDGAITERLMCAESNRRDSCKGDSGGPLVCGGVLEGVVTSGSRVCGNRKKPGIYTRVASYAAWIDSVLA
Description: 1. Complement Factor D Inhibitory Activity (C3b Method) In Vitro Screening Experiment
V-bottom plate (AXYGEN), DMSO (Sigma), MicroVue Bb Plus ELISA kit (Quidel), complement factor C3b (abbreviated as factor C3b, Complement tech), complement factor B (abbreviated as factor B, Complement tech), complement factor D (abbreviated as factor D, Complement tech), EDTA (MACKLIN), GVB^o (Complement tech), EGTA (Aladdin), MgCl2 (Aladdin), NaOH (Sinopharm), microplate reader (Molecular Devices, SpectraMax i3x), microplate thermostatic shaker (Thermo, MB100-2A), pipette (Gilson)
0.1 M Mg-EGTA: 3.8 g of EGTA, 0.9521 g of MgCl2, and 0.7 g of NaOH were weighed, and the pH was adjusted to 7.5 with NaOH. Distilled water was added to make up to 100 mL, and the mixture was filtered with a […] sterile needle filter, stored in portions at 4° C.
Buffer: 0.1 M Mg-EGTA solution was diluted 10-fold to 10 mM with GVB^o buffer; • factor B working solution: 1 mg/mL factor B solution (10.75 μM) was diluted 6.7-fold to 1.6 μM with buffer; • factor C3b working solution: 1 mg/mL factor C3b solution (5.68 μM) was diluted 5-fold to […] with buffer; • factor D working solution: 0.1 mg/mL factor D solution (4.17 μM) was diluted 1303-fold to 3.2 nM with buffer.
Note: a. The above dilution multiples are for reference only and are adjusted according to the true concentration labeled on the reagent; • b. factor B: 93 KDa, factor D: 24 KDa, factor C3b: 176 KDa.
Stop solution: An appropriate amount of EDTA powder was weighed, dissolved in a certain amount of GVB^o buffer, and the pH was adjusted to 7.5 with NaOH. The mixture was stirred until clear and prepared into a 10 mM solution.
Compound stock solution: 40 mM compound solution was diluted with DMSO into 1 mM stock solution, and the 1 mM stock solution was diluted 3-fold with DMSO at 8 points to prepare compound stock solutions of various concentrations.
Compound working solution: diluted 250-fold with buffer to obtain compound solutions of various concentrations.
In the V-bottom plate, the experimental group was added with 10 μL of factor D solution and 10 μL of compound solution; the positive control group was added with 10 μL of factor D solution and buffer containing 0.4% DMSO; the blank control group was added with […] containing 0.2% DMSO; incubated at 37° C. for 15 min; the factor B working solution and the factor C3b working solution were mixed homogeneously at a ratio of 1:1; 20 µL of the mixture was added to each well and incubated at 37° C. for 30 min; the reaction was stopped by adding 40 μL of stop solution; the production of product Bb was detected by MicroVue Bb Plus ELISA kit.
1.4.1 The required wells of the ELISA plate were taken out and allowed to return to room temperature, and the remaining ones were repackaged and stored at 4° C.;
1.4.2 the wells were washed twice with 300 μL of 1× wash buffer, and incubated for 1 min at 25° C. for the first wash;
1.4.3 samples were diluted 8-fold with complement specimen diluent, and 100 μL of sample was added to each well and incubated at 25° C. for 30 min;
1.4.4 the liquid in the wells was discarded, and the wells were washed 5 times with 300 μL of 1× wash buffer, and incubated at room temperature for 1 min for the first wash;
1.4.5 50 μL of Bb Plus Conjugate was added to each well and incubated at 25° C. for 30 min;
1.4.6 the liquid in the wells was discarded, and the wells were washed 5 times with 300 μL of 1× wash buffer, and incubated at room temperature for 1 min for the first wash;
1.4.7 100 μL of […] (Substrate Solution) was added to each well and incubated at 25° C. for 15 min;
1.4.8 100 μL of stop solution was added to each well, and the absorbance was detected at 450 nm within 30 min.
1.5.1 Inhibition rate of each drug concentration:
The PC group represents 0% inhibition rate, and the NC group represents 100% inhibition rate. […]

[1] = tested on: hemolysis of rabbit erythrocytes; assay: Rabbit erythrocyte hemolysis assay to evaluate inhibitory activity on the bypass pathway; format: cell-based; settings: Oryctolagus cuniculus, 0.5 h, 48% NHP or 26.4% NHS, 37° C. 30 min, absorbance 415 nm
Description: 2. Rabbit Erythrocyte Hemolysis Assay to Evaluate the Inhibitory Activity of Compounds on the Bypass Pathway
Normal Human Serum, NHS (collected from healthy people), Normal Human Plasma, NHP (Shanghai Yuduo), 96-well ELISA plate (Jet Biofil), Japanese big-eared white rabbit (Wuhan WQJX), Alsever's solution (Procell), centrifuge (Thermo, PICO17), thermostatic shaker (Shanghai Fuma), destaining shaker (Beijing Liuyi), cell counter (Invitrogen, Counter Countess II) (GVB^o, EGTA, MgCl2, NaOH, microplate reader, microplate thermostatic shaker, and pipette are equivalent to those in the experiment 1).
48% NHP: 100% NHP was diluted to 48% with buffer;
26.4% NPS: 100% NHS was diluted to 26.4% with buffer;
rabbit erythrocyte suspension: blood was taken from rabbit ear marginal vein, anticoagulated with Alsever's solution at a ratio of 1:1, stored in portions at 4° C., and could be stored for 4 weeks. Before use, the suspension was centrifuged at 500 g for 5 min to discard the Alsever's solution, washed three times with an equal volume of buffer and centrifuged at 500 g for 5 min, and finally the density was adjusted to 6×10^8 cells/mL with buffer.
In the 96-well ELISA plate, the experimental group was added with 50 μL of 48% NHP or 26.4% NHS and 50 μL of compound solution; the positive control group was added with 50 μL of 48% NHP or 26.4% NHS and 50 μL of buffer containing 0.2% DMSO; the blank control group was added with 50 μL of 48% inactivated NHP or 26.4% inactivated NHS and 0.2% DMSO buffer; the H2O group was added with 100 μL of double-distilled water; incubated at 37° C. for 15 min; 20 μL of rabbit erythrocyte suspension was added to each well and incubated on a shaker at 37° C. for 30 min; centrifuged at 2000 g (3380 rpm) for 5 min, and […] of supernatant was transferred to a new 96-well ELISA plate, and the absorbance was detected at 415 nm.
The PC group represents 100% hemolysis, and the NC group represents 0% hemolysis.
IC50: half-maximal inhibitory concentration. Data were collected to calculate the log value of hemolysis percentage versus compound concentration, and IC50 values were calculated using GraphPad Prism software.

[2] = In vivo pharmacokinetic study (PK assay on SD rats); settings: Sprague-Dawley, rat, plasma; for bioavailability: read-out: Oral bioavailability F
Protocol: 3. In Vivo Pharmacokinetic Study of the Compounds of the Present Disclosure
After adaptive domestication, SPF grade SD rats were administered 1 or 3 mg/kg the compounds of the present disclosure by single gavage and tail vein injection, respectively. Plasma was collected at specific time points after administration, and the concentration of compounds in plasma was detected by LC-MS/MS (AB SCIEX Qtrap4500). The PK parameters of each compound were calculated using software to reflect the pharmacokinetic properties of the compounds of the present disclosure in vivo in animals.

[3] = PO (3% DMSO + 4% Tween), 1 mg/kg
[4] = PO (3% DMSO + 4% Tween), 3 mg/kg

Row | Compound | IC50 (complement factor D) | IC50 [1] | AUC(0-t) ([2]; IV, 1 mg/kg) | Cmax ([2]; IV, 1 mg/kg) | half-life ([2]; IV, 1 mg/kg) | bioavailability ([2]; PO 1 mg/kg vs IV 1 mg/kg) | AUC(0-t) [2, 3] | Cmax [2, 3] | half-life [2, 3] | bioavailability ([2]; PO 3 mg/kg vs IV 1 mg/kg) | AUC(0-t) [2, 4] | Cmax [2, 4] | half-life [2, 4]
1 | NCc1cccc(-c2cc(COc3ccccc3CC(=O)O)cc(N3CCC4(CC3)CC4)c2)c1 [Compound 001, 2-(2-((3′-(aminomethyl)-5-(6-azaspiro[2.5]octan-6-yl)-[1,1′-biphenyl]-3-yl)methoxy)phenyl)acetic acid] | 10 nM | 41 nM | 8030 ng·h/mL | 1800 ng/mL | 3.59 h | 40.3% | 3240 ng·h/mL | 577 ng/mL | 4.13 h |  |  |  | 
2 | NCc1cccc(-c2cc(COc3ccccc3CC(=O)O)cc(N3CCC4(CC3)CC4)c2)c1F [Compound 007, 2-(2-((3′-(aminomethyl)-2′-fluoro-5-(6-azaspiro[2.5]octan-6-yl)-[1,1′-biphenyl]-3-yl)methoxy)phenyl)acetic acid] | 12 nM | 59 nM | 3290 ng·h/mL | 3270 ng/mL | 0.64 h | 70.2% | 2310 ng·h/mL | 936 ng/mL | 1.46 h |  |  |  | 
3 | NCc1nccc(-c2cc(COc3ccccc3CC(=O)O)cc(N3CCC4(CC3)CC4)c2)c1F [Compound 023, 2-(2-((3-(2-(aminomethyl)-3-fluoropyridin-4-yl)-5-(6-azaspiro[2.5]octan-6-yl)benzyl)oxy)phenyl)acetic acid] | 15 nM | 76 nM | 7060 ng·h/mL | 3410 ng/mL | 4.58 h |  |  |  |  | 35.3% | 7480 ng·h/mL | 1020 ng/mL | 4.1 h
